{
  "source": "patent US20260053767A1",
  "about": "“Hepatoprotective Compositions And Methods” (Jemyll, Ltd., priority 2022, published 2026)",
  "key": {"[1]": {"tested_on": "Wistar rats", "experiment": "Study 2 (reversal): liver histology (H&E, Oil Red O, Sirius Red)", "type": "in vivo", "details": "Study 2: 9 weeks diet, then 4 weeks treatment", "protocol": "(§1) Study design: All animal procedures were approved by the Catholic University of Rome Institutional Animal Care Committee. The design of the studies is summarized in FIG. 18, Panels A and B. • Study 1: Twenty adult Wistar rats, aged 8-10 weeks, were included in the study. The rats were housed in individual cages at 22° C. with 12-h light cycles and had ad libitum access to food and water. Rats were fed a high-fat high-cholesterol diet (44% Carbohydrate, 14% Protein, 42% fat+0.2% Cholesterol) (Mucedola, Milan, IT) for four weeks in the presence or absence of 1% Dodecanedioic acid, sodium salt (w/vol) dissolved in the water (FIG. 18, Panel A). Body weight and food/water intake were monitored weekly. • Study 2: Twenty adult Wistar rats, aged 8-10 weeks, were included in the study. The rats were housed in individual cages at 22° C. with 12-h light cycles and had ad libitum access to food and water. Rats were fed a high-fat high-cholesterol diet (44% Carbohydrate, 14% Protein, 42% fat+0.2% Cholesterol) (Mucedola, Milan, IT). After nine weeks of diet, rats were randomly assigned to one of the following groups: Four weeks of high-fat high-cholesterol diet or four weeks of high-fat high-cholesterol diet and 1% Dodecanedioic acid, sodium salt (w/v) dissolved in the water FIG. 18, Panel B). Body weight and food/water intake were monitored weekly.\nHistology: The day of the sacrifice fresh portions of liver were cut, embedded in cryo-embedding media (OCT) and snap frozen in liquid nitrogen. Biopsies were cut using a cryostat (5 μm) and slides stored a −20° C. until analyses.\nHematoxylin and Eosin staining was performed to assess hepatic steatosis. Slides were fixed 10 minutes with 95% ethanol, stained with hematoxylin for 1 minute, washed with distilled water, stained with eosin for 30 seconds and cleared in two changes of pure ethanol and two changes of xylene.\nOil Red O was performed to assess intracellular lipid accumulation. Slides were fixed overnight with 4% formalin, stained with Oil Red O solution for 1 hour. Counterstain was performed with Hematoxylin solution.\nSirius Red was used to identify hepatic fibrosis. Slides were fixed 10 minutes with 4% formalin, stained in Direct red 80 for 1 hour, washed in acidified water and dehydrate in 3 changes of absolute ethanol. After brief clearing in xylene, the slides were mounted in a resinous medium. Images were taken with an optical microscope (Leica DM2000, Wetzlar, DE). […]\nPanels A and B. • Study 1: Twenty adult Wistar rats, aged 8-10 weeks, were included in the study. […] Body weight and food/water intake were monitored weekly. • Study 2: Twenty adult Wistar rats, aged 8-10 weeks, were included in the study. […] Body weight and food/water intake were monitored weekly. […]"}, "[2]": {"tested_on": "endothelial cells (EOMA cells)", "experiment": "Total antioxidant capacity in endothelial cells", "type": "cell-based", "details": "24 hours, in the presence of hydrogen peroxide, p=0.001", "source_text": "(§2) To that end, the inventors used endothelial cells (EOMA cells) and liver cells (AML-12 cells) in vitro and quantified various markers in response to exposure of the cells to environmental challenge in the presence and absence of DDA at low concentrations. Unless indicated otherwise, the DDA concentration in the in vitro experiments was 5 mcg per microliter. More specifically, the inventors measured p-H2AX protein levels as a marker for DNA damage, PGC-1α protein levels as a marker for mitochondrial biogenesis, NAMPT enzyme levels as a marker for potential for NAD+ production, and total antioxidant capacity as a marker of cellular health. In addition, the inventors also measured global SIRT activity as a gauge of activity for all SIRT enzymes, and in particular SIRT1 enzyme levels as markers for autophagy and various beneficial processes associated with a caloric restricted diet, and SIRT3 levels as markers for mitochondrial function and longevity.\n(§3) In yet a further series of experiments, the inventors also sought to confirm whether or not DDDA would have a modulatory effect in endothelial cells using the same markers and experimental conditions as noted above.\nWith respect to antioxidant capacity, FIG. 12 depicts exemplary results. […] N=5-6 plates per treatment."}, "[3]": {"tested_on": "Wistar rats", "experiment": "Study 2 (reversal): oral glucose tolerance test and HOMA-IR", "type": "in vivo", "details": "Study 2: 9 weeks high fat-high cholesterol diet, then 4 weeks treatment", "protocol": "as §1\nOral Glucose Test Tolerance (OGTT): All animals underwent an OGTT at the end of the study. After an overnight fasting, the rats received a 50% D-glucose solution (1 g/kg body weight) by oral gavage. Blood samples were taken by tail bleeding and collected in EDTA tubes. All blood samples were immediately centrifuged, and plasma divided into appropriate subsamples and stored at −20° C. for further analysis. Blood glucose and was measured at 0, 20, 40, 60, 80, 100 and 120 minutes, while plasma insulin at 0, 60 and 120 minutes. Blood glucose levels were measured by glucometer (Accu-Chek, Roche Diagnostics Division, Grenzacherstrasse, CH). Plasma insulin was measured by ELISA (EMD Millipore Corporation, Billerica, MA), with a sensitivity of 0.1 ng/ml and an intra-and inter-assay precision of 1.9% and 7.6%, respectively.\nDODA administration reverses insulin resistance and NASH: To assess if DODA could reverse the development of diet-induced insulin resistance and NASH, rats were first fed high fat high cholesterol diet for 9 weeks to develop insulin resistance and NASH. After 9 weeks of diet, DODA was administered for 4 weeks to assess insulin resistance and NASH reversal. Rats fed high fat high cholesterol diet without the administration of DODA were included as controls.\nPanels A and B. • Study 1: Twenty adult Wistar rats, aged 8-10 weeks, were included in the study. The rats were housed in individual cages at 22° C. with 12-h light cycles and had ad libitum access to food and water. Rats were fed a high fat high cholesterol diet (44% Carbohydrate, 14% Protein, 42% fat+0.2% Cholesterol) for 4 weeks in the presence or absence of 1% Dodecanedioic acid, sodium salt dissolved in the water (FIG. 25, Panel A). Body weight and food/water intake were monitored weekly. • Study 2: Twenty adult Wistar rats, aged 8-10 weeks, were included in the study. The rats were housed in individual cages at 22° C. with 12-h light cycles and had ad libitum access to food and water. Rats were fed a high fat-high cholesterol diet (44% Carbohydrate, 14% Protein, 42% fat+0.2% Cholesterol). […] Body weight and food/water intake were monitored weekly. […]"}, "[4]": {"tested_on": "SIRT3", "experiment": "SIRT3 in endothelial cells", "type": "cell-based", "details": "EOMA endothelial cells", "source_text": "as §2, §3\nN=5-6 plates per treatment."}},
  "note": "“Also recorded” adds a separate entry of the source.",
  "data": [
    {"molecule": "O=C(O)CCCCCCCCCCC(=O)O", "note": "[DDDA, dodecanedioic acid]", "values": [
      {"measurement": "diet-induced NASH (histology, reversal)", "setting": "[1]", "value": "reverses diet-induced insulin NASH"},
      {"measurement": "fibrosis (Picro Sirius Red)", "setting": "[1]", "value": "decreasing"},
      {"measurement": "hepatic steatosis (Hematoxylin and Eosin)", "setting": "[1]", "value": "decreasing"},
      {"measurement": "neutral lipids (Oil Red O)", "setting": "[1]", "value": "decreasing"},
      {"measurement": "cellular total antioxidant capacity", "setting": "[2]", "value": "maintained"},
      {"measurement": "blood glucose concentrations during an oral glucose tolerance test", "setting": "[3]; vs controls", "value": "decrease"},
      {"measurement": "insulin resistance as assessed by HOMA-IR", "setting": "[3]; vs controls", "value": "reverse insulin resistance"},
      {"measurement": "plasma insulin concentrations during an oral glucose tolerance test", "setting": "[3]; vs controls", "value": "decrease"},
      {"measurement": "diet-induced insulin resistance and NASH (overall, reversal)", "setting": "[3]; listed as C12", "value": "could reverse both diet-induced insulin resistance and NASH; also recorded: reverses diet-induced insulin resistance"},
      {"measurement": "diet-induced insulin resistance and NASH (overall, reversal)", "setting": "[3]; listed as DODA", "value": "could reverse both diet-induced insulin resistance and NASH; also recorded: reverses diet-induced insulin resistance"},
      {"measurement": "SIRT3", "setting": "[4]; 24 hours", "value": "significant decline"},
      {"measurement": "SIRT3", "setting": "[4]; acute (6-hour data)", "value": "strong and acute increase"}
    ]}
  ]
}
